pIC50: −log10 of the molar value.

Experimental findings from ChEMBL document CHEMBL1130886, “Serine derived NK1 antagonists. 1: The effect of modifications to the serine substituents” (Bioorg Med Chem Lett, 1998) are described below.

The target of this experiment is Substance-P receptor (Homo sapiens, UniProt P25103). Put plainly: Ability to displace [125I]-substance P from hNK1 receptor in chinese hamster ovarian (CHO) cells. The format is cell-based.
Substance-P receptor, sequence (P25103 whole entry): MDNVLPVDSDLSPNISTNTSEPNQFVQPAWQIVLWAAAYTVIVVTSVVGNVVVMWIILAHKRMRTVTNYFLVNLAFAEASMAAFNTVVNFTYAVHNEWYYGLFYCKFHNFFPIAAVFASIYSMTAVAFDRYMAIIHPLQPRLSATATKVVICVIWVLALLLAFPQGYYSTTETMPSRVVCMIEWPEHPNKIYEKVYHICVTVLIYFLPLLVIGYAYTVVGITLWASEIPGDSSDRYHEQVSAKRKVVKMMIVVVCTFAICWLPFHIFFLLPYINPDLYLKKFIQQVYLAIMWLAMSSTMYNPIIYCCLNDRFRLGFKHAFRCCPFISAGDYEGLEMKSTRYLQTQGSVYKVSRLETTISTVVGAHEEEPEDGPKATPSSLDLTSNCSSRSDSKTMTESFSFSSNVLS
One may read the pIC50 as −log10 of the IC50, conventionally taken in molar units. Read a high pIC50 as a small IC50. `CS(=O)(=O)N1CC2(CCN(C(=O)C(COCc3ccccc3)NCc3cccc(Cl)c3)CC2)c2ccccc21` (centres undefined) gave a pIC50 of 7.24.
In the case of `CS(=O)(=O)N1CC2(CCN(C(=O)C(CCc3ccc(Cl)c(Cl)c3)NCc3ccccc3)CC2)c2ccccc21` (centres undefined) it was 6.34; in that of `CS(=O)(=O)N1CC2(CCN(C(=O)C(COCc3ccccc3)NCc3cccc(Cl)c3Cl)CC2)c2ccccc21` (centres undefined), 6.82; in that of `CS(=O)(=O)N1CC2(CCN(C(=O)[C@H](COCc3ccc(Cl)c(Cl)c3)NCc3ccc(Cl)c(Cl)c3)CC2)c2ccccc21`, 8.77.
Under `CS(=O)(=O)N1CC2(CCN(C(=O)C(COCc3ccccc3)NCc3c(Cl)cccc3Cl)CC2)c2ccccc21` (centres undefined) stands 6.05; under `CS(=O)(=O)N1CC2(CCN(C(=O)C(COCc3ccccc3)NCc3ccc(Cl)cc3)CC2)c2ccccc21` (centres undefined), 7.57; under `CS(=O)(=O)N1CC2(CCN(C(=O)C(COCc3ccccc3)NS(=O)(=O)c3ccc(Cl)c(Cl)c3)CC2)c2ccccc21` (centres undefined), 7.06.
`CS(=O)(=O)N1CC2(CCN(C(=O)C(COCc3ccccc3)NCc3ccc(Cl)cc3Cl)CC2)c2ccccc21` (centres undefined) gave a pIC50 of 7.00.
Under `CS(=O)(=O)N1CC2(CCN(C(=O)[C@H](COCc3cc(C(F)(F)F)cc(C(F)(F)F)c3)NC(=O)c3ccc(Cl)c(Cl)c3)CC2)c2ccccc21` stands 5.89.
Under `CS(=O)(=O)N1CC2(CCN(C(=O)C(COCc3ccccc3)NCc3cc(Cl)cc(Cl)c3)CC2)c2ccccc21` (centres undefined) stands 7.10.
Under `COc1cccc(CNC(COCc2ccccc2)C(=O)N2CCC3(CC2)CN(S(C)(=O)=O)c2ccccc23)c1` (centres undefined) stands 7.15.
`CS(=O)(=O)N1CC2(CCN(C(=O)[C@H](COCc3ccc(Cl)cc3)NCc3ccc(Cl)c(Cl)c3)CC2)c2ccccc21` had a pIC50 of 7.64.
In turn, `CS(=O)(=O)N1CC2(CCN(C(=O)C(CNCc3ccc(Cl)c(Cl)c3)NCc3ccccc3)CC2)c2ccccc21` (centres undefined) gave a pIC50 of 7.62.
For the compound `CS(=O)(=O)N1CC2(CCN(C(=O)C(COCc3ccccc3)NCc3cccc(F)c3)CC2)c2ccccc21` (centres undefined), the pIC50 was 6.80.
`CS(=O)(=O)N1CC2(CCN(C(=O)[C@@H](COCc3ccccc3)NCc3ccc(Cl)c(Cl)c3)CC2)c2ccccc21`: the pIC50 was 7.38.
Under `CN(C)c1ccc(CNC(COCc2ccccc2)C(=O)N2CCC3(CC2)CN(S(C)(=O)=O)c2ccccc23)cc1` (centres undefined) stands 7.48; under `CS(=O)(=O)N1CC2(CCN(C(=O)C(COCc3ccccc3)NCc3cccc(Br)c3)CC2)c2ccccc21` (centres undefined), 7.22.
`CS(=O)(=O)N1CC2(CCN(C(=O)[C@H](COCc3ccc(Cl)cc3)NCc3ccccc3)CC2)c2ccccc21` showed a pIC50 of 8.18.
In the case of `CS(=O)(=O)N1CC2(CCN(C(=O)[C@H](CS(=O)(=O)Cc3ccc(Cl)c(Cl)c3)NCc3ccccc3)CC2)c2ccccc21` it was 7.20; in that of `CS(=O)(=O)N1CC2(CCN(C(=O)C(CCCc3ccc(Cl)c(Cl)c3)NCc3ccccc3)CC2)c2ccccc21` (centres undefined), 8.48.
Under `CS(=O)(=O)N1CC2(CCN(C(=O)[C@H](COCc3ccccc3Cl)NCc3ccc(Cl)c(Cl)c3)CC2)c2ccccc21` stands 7.47; under `CS(=O)(=O)N1CC2(CCN(C(=O)[C@H](CSCc3ccc(Cl)c(Cl)c3)NCc3ccccc3)CC2)c2ccccc21`, 7.89; under `CS(=O)(=O)N1CC2(CCN(C(=O)C(N)COCc3ccccc3)CC2)c2ccccc21` (centres undefined), 5.70.
With `CS(=O)(=O)N1CC2(CCN(C(=O)[C@H](COCc3ccccc3Cl)NCc3ccccc3)CC2)c2ccccc21`, the pIC50 was 7.44.
Consider `CS(=O)(=O)N1CC2(CCN(C(=O)C(COCc3ccccc3)NCc3ccc(Cl)c(Cl)c3)CC2)c2ccccc21` (centres undefined), for which the pIC50 is 7.92.
In the case of `CS(=O)(=O)N1CC2(CCN(C(=O)C(COCc3ccccc3)NC(=O)c3ccc(Cl)c(Cl)c3)CC2)c2ccccc21` (centres undefined) it was 6.59; in that of `CS(=O)(=O)N1CC2(CCN(C(=O)[C@H](COCc3cccc(Cl)c3)NCc3ccc(Cl)c(Cl)c3)CC2)c2ccccc21`, 7.96.
In the case of `CS(=O)(=O)N1CC2(CCN(C[C@H](COCc3ccc(Cl)c(Cl)c3)NCc3ccccc3)CC2)c2ccccc21` it was 6.77.
The compound `COc1ccc(CNC(COCc2ccccc2)C(=O)N2CCC3(CC2)CN(S(C)(=O)=O)c2ccccc23)cc1` (centres undefined) showed a pIC50 of 7.24.
Under `Cc1cccc(CNC(COCc2ccccc2)C(=O)N2CCC3(CC2)CN(S(C)(=O)=O)c2ccccc23)c1` (centres undefined) stands 7.26.
`CS(=O)(=O)N1CC2(CCN(C(=O)C(COCc3ccccc3)NCc3cccc([N+](=O)[O-])c3)CC2)c2ccccc21` (centres undefined) showed a pIC50 of 6.92.
Under `COc1ccccc1CNC(COCc1ccccc1)C(=O)N1CCC2(CC1)CN(S(C)(=O)=O)c1ccccc12` (centres undefined) stands 6.79; under `CS(=O)(=O)N1CC2(CCN(C(=O)C(COCc3ccccc3)NCc3ccccc3Cl)CC2)c2ccccc21` (centres undefined), 6.27.
Compound `CS(=O)(=O)N1CC2(CCN(C(=O)C(COCc3ccccc3)NCc3cccc(C#N)c3)CC2)c2ccccc21` (centres undefined) showed a negative logarithm of the IC50 (pIC50) of 6.82.
Under `CS(=O)(=O)N1CC2(CCN(C(=O)[C@H](COCc3ccccc3)NCc3ccc(Cl)c(Cl)c3)CC2)c2ccccc21` stands 7.74; under `CS(=O)(=O)N1CC2(CCN(C(=O)[C@H](COCc3cccc(Cl)c3)NCc3ccccc3)CC2)c2ccccc21`, 8.11.
For the compound `CS(=O)(=O)N1CC2(CCN(C(=O)C(COCc3ccccc3)NCc3ccccc3)CC2)c2ccccc21` (centres undefined), the pIC50 was 7.10. Compared with the last compound, the pIC50 is 1.01 log units lower.
As to `CS(=O)(=O)N1CC2(CCN(C(=O)C(COCc3ccccc3)NC(=O)Cc3ccc(Cl)c(Cl)c3)CC2)c2ccccc21` (centres undefined), the pIC50 is 7.37.
On to `CN(Cc1ccc(Cl)c(Cl)c1)CC(NCc1ccccc1)C(=O)N1CCC2(CC1)CN(S(C)(=O)=O)c1ccccc12` (centres undefined), for which the pIC50 was 7.27.
